Like-named read-outs stand apart in the source and are kept apart here.
Key:
Plk1 = Plk1 (Homo sapiens (Human), UniProt P53350); experiment: PLK1 inhibition assay (radioactive-phosphate incorporation); format: biochemical; details: Ki(app), read-out: PLK1 - 33P.ENZ - CB 10 Ki
Method: Compounds were screened for their ability to inhibit Plk1 using a radioactive-phosphate incorporation assay. Assays were carried out in a mixture of 25 mM HEPES (pH 7.5), 10 mM MgCl2, 25 mM NaCl, and 2 mM DTT. Final substrate concentrations were 20 μM [γ-33P]ATP (35mCi 33P ATP/mmol ATP, Perkin Elmer/Sigma Chemicals) and 9 uM Sam68 protein. Assays were carried out at room temperature in the presence of 15 nM Plk1. An assay stock buffer solution was prepared containing all of the reagents listed above, with the exception of ATP and the test compound of interest. 0.75 μL of DMSO stock containing serial dilutions of the test compound (typically starting from a final concentration of 10 μM with 2-fold serial dilutions—final DMSO concentration 1.5%) was placed in a 384 well plate followed by addition of 25 μL [γ-33P]ATP (final concentration 20 μM). The reaction was initiated by addition of 25 μL of the assay stock buffer solution.
The reaction was stopped after 45 minutes by the addition of 25 μL 30% trichloroacetic acid (TCA) containing 10 mM cold ATP. The entire quenched reaction was transferred to a 384-well glass fiber filter plate (Millipore, Cat no. MZFBNOW50). The plate was washed with 3×5% TCA. After drying, 40 μL of Ultima Gold liquid scintillation cocktail (Perkin Elmer) was added to the well prior to scintillation counting in a PerkinElmer TopCount.
After removing mean background values for all of the data points, Ki(app) data were calculated from non-linear regression analysis of the initial rate data using the Prism software package (GraphPad Prism, GraphPad Software, San Diego California, USA).

[1] = tested on: β-catenin-TCF-mediated reporter transcription activity in Colo 205 cells; experiment: Colo 205 reporter assay (TCF/LEF luciferase); format: cell-based; details: Colo 205 TCF/LEF luciferase reporter, five hours after addition of compound, read-out: TCF reporter Colo205 IC50
In short: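 Luciferase signal from a TCF/LEF-driven reporter, stably integrated in Colo 205 colon cancer cells, was measured 5 h after compound addition.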

Chain of Plk1 (P53350 whole entry, species assumed): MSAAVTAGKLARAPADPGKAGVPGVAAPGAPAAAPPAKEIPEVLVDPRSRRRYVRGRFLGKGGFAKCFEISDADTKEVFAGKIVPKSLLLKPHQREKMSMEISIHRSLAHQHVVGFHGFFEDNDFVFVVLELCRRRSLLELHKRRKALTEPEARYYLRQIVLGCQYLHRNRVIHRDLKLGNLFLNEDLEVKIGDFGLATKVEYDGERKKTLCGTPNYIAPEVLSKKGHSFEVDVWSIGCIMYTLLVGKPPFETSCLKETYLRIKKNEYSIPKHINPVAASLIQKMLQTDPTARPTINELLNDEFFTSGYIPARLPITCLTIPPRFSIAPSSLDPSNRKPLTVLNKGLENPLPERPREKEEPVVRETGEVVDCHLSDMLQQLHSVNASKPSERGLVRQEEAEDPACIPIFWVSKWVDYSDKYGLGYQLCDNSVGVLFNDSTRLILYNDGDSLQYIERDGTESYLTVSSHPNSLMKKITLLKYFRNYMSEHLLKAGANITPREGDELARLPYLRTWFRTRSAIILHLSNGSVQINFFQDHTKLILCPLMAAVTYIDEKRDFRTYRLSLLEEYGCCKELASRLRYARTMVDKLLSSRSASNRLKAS

Row | Ki (Plk1) | IC50 ([1]; Homo sapiens, COLO 205, 5 h) | IC50 [1] | SMILES
1 | > 4000 nM |  |  | CC[C@@]1(C)C(=O)N(C)c2cnc(NCc3cnn(Cc4ccc(F)cc4)c3)nc2N1C [Compound 2, (7S)-7-ethyl-2-(((1-(4-fluorobenzyl)-1H-pyrazol-4-yl)methyl)amino)-5,7,8-trimethyl-7,8-dihydropteridin-6(5H)-one]
2 | > 4000 nM | < 300 nM |  | CC[C@]1(C)C(=O)N(C)c2cnc(NCc3cnn(Cc4ccc(F)cc4)c3)nc2N1C [Compound 3, (7R)-7-ethyl-2-(((1-(4-fluorobenzyl)-1H-pyrazol-4-yl)methyl)amino)-5,7,8-trimethyl-7,8-dihydropteridin-6(5H)-one]
3 | > 4000 nM | 300 to 1000 nM |  | Cc1nc(NCc2cnn(CC3CCC3)c2)nc2c1NC(=O)[C@H](C)N2C [Compound 5, (7S)-2-(((1-(cyclobutylmethyl)-1H-pyrazol-4-yl)methyl)amino)-4,7,8-trimethyl-7,8-dihydropteridin-6(5H)-one]
4 | > 4000 nM | < 300 nM |  | CC[C@H]1C(=O)N(C)c2cnc(NCc3cnn(Cc4cc(F)c(F)c(F)c4)c3)nc2N1C [Compound 15, (7S)-7-Ethyl-5,8-dimethyl-2-(((1-(3,4,5-trifluorobenzyl)-1H-pyrazol-4-yl)methyl)amino)-7,8-dihydropteridin-6(5H)-one]
5 | > 4000 nM | 300 to 1000 nM |  | CC[C@H]1C(=O)N(CC)c2cnc(NCc3cnn(Cc4ccc(F)cc4)c3)nc2N1C [Compound 19, (7S)-5,7-Diethyl-2-(((1-(4-fluorobenzyl)-1H-pyrazol-4-yl)methyl)amino)-8-methyl-7,8-dihydropteridin-6(5H)-one]
6 | > 4000 nM | < 300 nM |  | CCN1c2nc(NCc3cnn(Cc4ccc(F)cc4)c3)ncc2N(C)C(=O)[C@@H]1C [Compound 22, (7S)-8-ethyl-2-(((1-(4-fluorobenzyl)-1H-pyrazol-4-yl)methyl)amino)-5,7-dimethyl-7,8-dihydropteridin-6(5H)-one]
7 | > 4000 nM | < 300 nM |  | CCC[C@H]1C(=O)N(C)c2cnc(NCc3cnn(Cc4cc(F)c(F)c(F)c4)c3)nc2N1C [Compound 23, (7S)-5,8-dimethyl-7-propyl-2-(((1-(3,4,5-trifluorobenzyl)-1H-pyrazol-4-yl)methyl)amino)-7,8-dihydropteridin-6(5H)-one]
8 | > 4000 nM | 300 to 1000 nM |  | CCC[C@H]1C(=O)N(C)c2cnc(NCc3cnn(Cc4ccc(F)cc4)c3)nc2N1C [Compound 24, (7S)-2-(((1-(4-fluorobenzyl)-1H-pyrazol-4-yl)methyl)amino)-5,8-dimethyl-7-propyl-7,8-dihydropteridin-6(5H)-one]
9 | > 4000 nM | < 300 nM |  | CCN1C(=O)[C@H](C)N(CC)c2nc(NCc3cnn(Cc4ccc(F)cc4)c3)ncc21 [Compound 30, (7S)-5,8-diethyl-2-(((1-(4-fluorobenzyl)-1H-pyrazol-4-yl)methyl)amino)-7-methyl-7,8-dihydropteridin-6(5H)-one]
10 | > 4000 nM | 300 to 1000 nM |  | CC[C@H]1C(=O)N(C)c2cnc(NCc3cnn(Cc4ccc(F)cc4)c3)nc2N1C(C)C [Compound 32, (7S)-7-ethyl-2-(((1-(4-fluorobenzyl)-1H-pyrazol-4-yl)methyl)amino)-8-isopropyl-5-methyl-7,8-dihydropteridin-6(5H)-one]
11 | > 4000 nM | 300 to 1000 nM |  | CCN1C(=O)[C@](C)(CC)N(CC)c2nc(NCc3cnn(Cc4ccc(F)cc4)c3)ncc21 [Compound 34, (7S)-5,7,8-triethyl-2-(((1-(4-fluorobenzyl)-1H-pyrazol-4-yl)methyl)amino)-7-methyl-7,8-dihydropteridin-6(5H)-one]
12 | > 4000 nM | < 300 nM |  | COc1c(F)cc(Cn2cc(CNc3ncc4c(n3)N(C)[C@@H](C)C(=O)N4)cn2)cc1F [Compound 44, (7S)-2-(((1-(3,5-difluoro-4-methoxybenzyl)-1H-pyrazol-4-yl)methyl)amino)-7,8-dimethyl-7,8-dihydropteridin-6(5H)-one]
13 | > 4000 nM | < 300 nM |  | Cc1nc(NCc2cnn(Cc3cccc(C(F)(F)F)c3)c2)nc2c1NC(=O)[C@H](C)N2C [Compound 47, (7S)-4,7,8-trimethyl-2-(((1-(3-(trifluoromethyl)benzyl)-1H-pyrazol-4-yl)methyl)amino)-7,8-dihydropteridin-6(5H)-one]
14 | > 4000 nM | < 300 nM |  | CCN1C(=O)[C@H](CCO)N(CC)c2nc(NCc3cnn(Cc4cc(F)c(OC)c(F)c4)c3)ncc21 [Compound 48, (7S)-2-(((1-(3,5-difluoro-4-methoxybenzyl)-1H-pyrazol-4-yl)methyl)amino)-5,8-diethyl-7-(2-hydroxyethyl)-7,8-dihydropteridin-6(5H)-one]
15 | > 4000 nM | ≥ 5000 nM |  | C[C@H]1C(=O)Nc2cnc(NCc3cnn(Cc4cc(F)c(O)c(F)c4)c3)nc2N1C [Compound 50, (7S)-2-(((1-(3,5-difluoro-4-hydroxybenzyl)-1H-pyrazol-4-yl)methyl)amino)-7,8-dimethyl-7,8-dihydropteridin-6(5H)-one]
16 | > 4000 nM | < 300 nM |  | CCN1C(=O)[C@H](C)N(C(C)C)c2nc(NCc3cnn(Cc4cc(F)c(F)c(F)c4)c3)ncc21 [Compound 51, (7S)-5-ethyl-8-isopropyl-7-methyl-2-(((1-(3,4,5-trifluorobenzyl)-1H-pyrazol-4-yl)methyl)amino)-7,8-dihydropteridin-6(5H)-one]
17 | > 4000 nM | < 300 nM |  | Cc1nc(NCc2ccc(Oc3ccc(F)cc3)nc2)nc2c1NC(=O)[C@H](C)N2C [Compound 54, (7S)-2-(((6-(4-fluorophenoxy)pyridin-3-yl)methyl)amino)-4,7,8-trimethyl-7,8-dihydropteridin-6(5H)-one]
18 | > 4000 nM | < 300 nM |  | Cc1nc(NCc2cnn([C@H]3C[C@H](c4ccc(F)cc4)C3)c2)nc2c1NC(=O)[C@H](C)N2C [Compound 112, (7S)-2-(((trans-1-(3-(4-fluorophenyl)cyclobutyl)-1H-pyrazol-4-yl)methyl)amino)-4,7,8-trimethyl-7,8-dihydropteridin-6(5H)-one]
19 | > 4000 nM | < 300 nM |  | Cc1nc(NCc2cnn(CCC3CCCCC3)c2)nc2c1NC(=O)[C@H](C)N2C [Compound 113, (7S)-2-(((1-(2-cyclohexylethyl)-1H-pyrazol-4-yl)methyl)amino)-4,7,8-trimethyl-7,8-dihydropteridin-6(5H)-one]
20 | > 4000 nM | < 300 nM |  | Cc1nc(NCc2cnn(C3Cc4ccccc4C3)c2)nc2c1NC(=O)[C@H](C)N2C [Compound 116, (7S)-2-(((1-(2,3-dihydro-1H-inden-2-yl)-1H-pyrazol-4-yl)methyl)amino)-4,7,8-trimethyl-7,8-dihydropteridin-6(5H)-one]
21 | > 4000 nM | < 300 nM |  | Cc1noc(C)c1Cn1cc(CNc2nc(C)c3c(n2)N(C)[C@@H](C)C(=O)N3)cn1 [Compound 138, (7S)-2-(((1-((3,5-dimethylisoxazol-4-yl)methyl)-1H-pyrazol-4-yl)methyl)amino)-4,7,8-trimethyl-7,8-dihydropteridin-6(5H)-one]
22 | > 4000 nM | < 300 nM |  | Cc1nc(NCc2cnn(Cc3ccc(C(F)(F)F)o3)c2)nc2c1NC(=O)[C@H](C)N2C [Compound 192, (7S)-4,7,8-trimethyl-2-(((1-((5-(trifluoromethyl)furan-2-yl)methyl)-1H-pyrazol-4-yl)methyl)amino)-7,8-dihydropteridin-6(5H)-one]
23 | > 4000 nM | < 300 nM |  | Cc1nc(NCc2cnn(Cc3ccc(F)cc3)c2)nc2c1NC(=O)C1(CC1)N2C [Compound 221, 2′-(((1-(4-fluorobenzyl)-1H-pyrazol-4-yl)methyl)amino)-4′,8′-dimethyl-5′,8′-dihydro-6′H-spiro[cyclopropane-1,7′-pteridin]-6′-one]
24 | > 4000 nM | < 300 nM |  | CN1C(=O)C(C)(C)N(C)c2nc(NCc3cnn(Cc4ccc(F)cc4)c3)ncc21 [Compound 224, 2-(((1-(4-fluorobenzyl)-1H-pyrazol-4-yl)methyl)amino)-5,7,7,8-tetramethyl-7,8-dihydropteridin-6(5H)-one]
25 | > 4000 nM |  | 300 to 1000 nM | CCN1C(=O)[C@@](C)(CC)N(CC)c2nc(NCc3cnn(Cc4ccc(F)cc4)c3)ncc21 [Compound 234, (7R)-5,7,8-triethyl-2-(((1-(4-fluorobenzyl)-1H-pyrazol-4-yl)methyl)amino)-7-methyl-7,8-dihydropteridin-6(5H)-one]
26 | > 4000 nM | < 300 nM |  | Cc1nc(N[C@@H]2CC[C@@H](Oc3cc(F)c(F)c(F)c3)C2)nc2c1NC(=O)[C@H](C)N2C [Compound 267, (S)-4,7,8-trimethyl-2-(((1R,3R)-3-(3,4,5-trifluorophenoxy)cyclopentyl)amino)-7,8-dihydropteridin-6(5H)-one]

Source: US20230312587A1, “PTERIDINONE COMPOUNDS AND USES THEREOF” (Vertex Pharmaceutical Incorporated, priority 2018, published 2023)
